Reference: patent US6632789B1, “Methods for modulating T cell responses by manipulating intracellular signal transduction” (The United States of America as represented by the …, priority 1994, dated 2003)
Like-named read-outs stand apart in the source and are kept apart here.

Legend:
[1] = system: CD28-mediated calcium flux in Jurkat cells; assay: Anti-CD28 antibody-induced calcium flux in Jurkat cells; format: cell-based; conditions: Jurkat cells stimulated with anti-CD28 antibody; FIG. 4
Procedure: In this example, the effect of pharmacological inhibitors on calcium flux in Jurkat cells induced by anti-CD28 antibodies was examined. The pharmacological inhibitors studied were wortmannin, which inhibits the activity of PI3K, and herbimycin A, which inhibits the activity of protein tyrosine kinases. Jurkat cells were stimulated with an anti-CD28 antibody, either in medium alone or in the presence of wortmannin or herbimycin A, and the mean calcium concentration (nM) in the cells was measured over several minutes following stimulation.

[2] = system: CD28-induced IL-2 production; conditions: cited from earlier work
human T cells = assay: IL-2 production by human T cells after 24 hours (ELISA of supernatants); format: cell-based; conditions: for IC50: T-cell
Procedure: In this example, the effect of an inhibitor of phosphatidylinositol 3-kinase on CD28-dependent production of interleukin-2 by T cells was examined. In a first series of experiments, the effect of T cell stimulation through CD28, in conjunction with stimulation through CD3, on IL-2 production was assessed in the absence of wortmannin. Highly purified human peripheral blood T cells were incubated for 24 hours with an immobilized anti-CD3 antibody (OKT3) alone or together with either an anti-CD28 antibody (9.3) or mitomycin C-treated CHO cells, either untransfected or transfected to express B7-1 or B7-2. Increasing numbers of CHO cells were tested (0.5×10^6 to 4×10^6). After culture for 24 hours, the culture supernatants were assayed for IL-2 production by ELISA by standard techniques.
In a next series of experiments, resting human T cells were stimulated with either: 1) immobilized OKT3+CHO-B7-1, 2) immobilized OKT3+CHO-B7-2, 3) immobilized OKT3+CHO-B7-1+B7-2, 4) PMA+CHO-B7-1 or 5) PMA+B7-2. Stimulation of T cells was performed in media alone or in media containing wortmannin at concentrations between 1 nM and 1 μM. Twenty-four hours following culture, the supernatants were assayed for IL-2 production by ELISA. […] Wortmannin-mediated inhibition of IL-2 production was dose dependent. The ID50 for inhibition of B7-2 -mediated stimulation was approximately 10 nM. The ID50 for inhibition of B7-1-mediated stimulation was between 10 and 100 nM.

**Q.** What does the source list for `CO[C@H]1[C@@H](OC)C[C@H](C)[C@@H](OC)C2=CC(=O)C=C(NC(=O)/C(C)=C/C=C\[C@H](OC)[C@@H](OC(N)=O)/C(C)=C/[C@@H]1C)C2=O` [herbimycin A]?
**A.** inhibition of CD28 antibody-induced calcium flux [1]: capable of inhibiting; inhibition of CD28-induced IL-2 production [2]: can inhibit

**Q.** Which IC50 (human T cells; resting human T cells, immobilized OKT3+CHO-B7-1, 24 hours, read-out: ID50 for inhibition of B7-1-mediated stimulation of IL-2 production) does the source give for `COC[C@H]1OC(=O)c2coc3c2[C@@]1(C)C1=C(C3=O)[C@@H]2CCC(=O)[C@@]2(C)C[C@H]1OC(C)=O` [wortmannin] here?
**A.** 10 to 100 nM

**Q.** What about the IC50 (human T cells; resting human T cells, immobilized OKT3+CHO-B7-2, 24 hours, read-out: ID50 for inhibition of B7-2-mediated stimulation of IL-2 production) of the same compound?
**A.** ~10 nM

**Q.** And the “toxicity to the cells” value (human T cells; resting human T cells, at the ID50 doses (10 to 100 nM))?
**A.** not generally toxic

**Q.** What about the “inhibition of IL-2 production stimulated by PMA together with membrane-bound B7-1 or B7-2” value (human T cells; resting human T cells, wortmannin at concentrations as high as 1 μM) of the same compound?
**A.** not inhibited

**Q.** With “OKT3: immobilized anti-CD3 antibody (OKT3)” as the compound, how does the IL-2 production (human T cells; purified human peripheral blood T cells, 24 hours, immobilized OKT3 alone, FIG. 6) read?
**A.** did not produce IL-2
